Test results reported in patent US8217013B2, “Polyene diester antibiotics” (priority 2007, dated 2012).
Read-outs that look alike come from different tables or passages of the source.

What was measured:
Test in all cases: Test of antibacterial activity in vitro (bacteria-inhibition zone)
Format in all cases: cell-based
Candida mycoderma = system: Candida mycoderma
Text: (§1) Test of Antibacterial Activity In Vitro
(§2) Experiment drugs: the polyene diester compounds prepared by examples 1-12
(§3) Control drugs: amphotericin B (standard product) • mycostatin (standard product) • natamycin (standard product)
2.3 Preparation of Candida mycoderrna suspension: the method is as same as preparation of Saccharomyces cerevisiae suspension
(§4) Taking appropriate amount of the above mentioned amphotericin B, mycostatin, natamycin and the polyene diester compounds prepared by examples 1-8 and 10-12, dissolving in a little dimethyl sulfoxide respectively, using pH7 phosphate buffer to dilute into solution which is equivalent to contain amphotericin B, mycostatin, natamycin 280 Units per milliliter, taking 1 ml and using pH7 phosphate buffer to quantitatively dilute into solution which is equivalent to contain amphotericin B 1.4 μg/ml and 2.8 μg/ml, and is equivalent to contain 5.6 μg/ml of mycostatin and natamycin.
(§5) In addition, preparing the solution according to the same method, adding 40% defibered sheep serum, using pH7 phosphate buffer to quantitatively dilute into unit solution which is equivalent to contain amphotericin B 1.4 μg/ml and 2.8 μg/ml, and is equivalent to contain 5.6 μg/ml of mycostatin and natamycin. Testing according to PHARMACOPOEIA OF THE PEOPLES REPUBLIC OF CHINA, second part, 2005 edition, appendix XIA The Antibiotics Microorganism Test.
(§6) Medium: Improved Martin Agar Medium, PHARMACOPOEIA OF THE PEOPLES REPUBLIC OF CHINA, second part, 2005 edition, appendix p 84.
(§7) Test method: Double-plate counting method; […] bacteria bed 15 ml to replace the double layers, culture temperature: 37° C., time: 24 h; strain concentration: 1%
(§8) Medium: Modified Martin Broth Medium

Candida albicans = settings: for zone of inhibition at 5.6 µg/mL: Candida albicans
Text: as §1, §2, §3
2.1 Preparation of Candida albicans suspension: PHARMACOPOEIA OF THE PEOPLES REPUBLIC OF CHINA, second part, 2005 edition, appendix p 81-84.
as §4, §5, §6
Test method: Double-plate counting method; […] bacteria bed 15 ml to replace the double layers, culture temperature: 37° C., time: 24 h; strain concentration: 1% […]

Saccharomyces cerevisiae = settings: for zone of inhibition at 5.6 µg/mL: Saccharomyces cerevisiae
Text: as §1, §2, §3
2.2 Preparation of Saccharomyces cerevisiae suspension: PHARMACOPOEIA OF THE PEOPLES REPUBLIC OF CHINA, second part, 2005 edition, appendix p 80, p 83.
as §4, §5, §6, §7, §8

[1] = 0 h, 5.6 μg/ml after conversion, serum added (40% defibered sheep serum)
[2] = 6 h, 5.6 μg/ml after conversion, serum added (40% defibered sheep serum)
[3] = 24 h, 5.6 μg/ml after conversion, serum added (40% defibered sheep serum)
[4] = 48 h, 5.6 μg/ml after conversion, serum added (40% defibered sheep serum)
[5] = 0 h, 5.6 μg/ml after conversion, no serum
[6] = 6 h, 5.6 μg/ml after conversion, no serum
[7] = 24 h, 5.6 μg/ml after conversion, no serum
[8] = 48 h, 5.6 μg/ml after conversion, no serum
[9] = 0 h, 2.8 μg/ml after conversion, no serum
[10] = 0 h, 2.8 μg/ml after conversion, serum added (40% defibered sheep serum)
[11] = 6 h, 2.8 μg/ml after conversion, no serum
[12] = 24 h, 2.8 μg/ml after conversion, no serum
[13] = 48 h, 2.8 μg/ml after conversion, no serum

Molecule	diameter of the bacteria-inhibition zone, Candida albicans 0 h (Candida albicans; [1])	diameter of the bacteria-inhibition zone, Candida albicans 6 h (Candida albicans; [2])	diameter of the bacteria-inhibition zone, Candida albicans 24 h (Candida albicans; [3])	diameter of the bacteria-inhibition zone, Candida albicans 48 h (Candida albicans; [4])	diameter of the bacteria-inhibition zone, Candida mycoderma 0 h (Candida mycoderma; [5])	diameter of the bacteria-inhibition zone, Candida mycoderma 0 h (Candida mycoderma; [1])	diameter of the bacteria-inhibition zone, Candida mycoderma 6 h (Candida mycoderma; [6])	diameter of the bacteria-inhibition zone, Candida mycoderma 24 h (Candida mycoderma; [7])	diameter of the bacteria-inhibition zone, Candida mycoderma 48 h (Candida mycoderma; [8])	diameter of the bacteria-inhibition zone, Candida albicans 0 h (Candida albicans; [5])	diameter of the bacteria-inhibition zone, Candida albicans 6 h (Candida albicans; [6])	diameter of the bacteria-inhibition zone, Candida albicans 24 h (Candida albicans; [7])	diameter of the bacteria-inhibition zone, Candida albicans 48 h (Candida albicans; [8])	diameter of the bacteria-inhibition zone, Saccharomyces cerevisiae 0 h (Saccharomyces cerevisiae; [5])	diameter of the bacteria-inhibition zone, Saccharomyces cerevisiae 0 h (Saccharomyces cerevisiae; [1])	diameter of the bacteria-inhibition zone, Saccharomyces cerevisiae 6 h (Saccharomyces cerevisiae; [6])	diameter of the bacteria-inhibition zone, Saccharomyces cerevisiae 6 h (Saccharomyces cerevisiae; [2])	diameter of the bacteria-inhibition zone, Saccharomyces cerevisiae 24 h (Saccharomyces cerevisiae; [7])	diameter of the bacteria-inhibition zone, Saccharomyces cerevisiae 48 h (Saccharomyces cerevisiae; [8])	further results
CC1OC(OC2/C=C/C=C/C=C/C=C/CC/C=C/C=C/C(C)[C@@H](O)[C@@H](C)[C@H](C)OC(=O)CC(O)CC(O)CC(O)CCC(O)C(O)C[C@]3(O)CC(O)C(C(=O)O)C(C2)O3)C(O)C(N)C1O (stereo partly drawn) [mycostatin, reference compound]	+ (7-9 mm: +)	+ (7-9 mm: +)	+ (7-9 mm: +)	+ (7-9 mm: +)	–	–	–	–	–	–	–	–	–	–	–	–	–	–	–	zone of inhibition at 5.6 µg/mL (Candida mycoderma; 0 h, 5.6 μg/ml after conversion, no serum, read-out: diameter of the bacteria-inhibition zone, Candida mycoderma 0 h): 12 to 14 mm; zone of inhibition at 5.6 µg/mL (Candida mycoderma; 6 h, 5.6 μg/ml after conversion, no serum, read-out: diameter of the bacteria-inhibition zone, Candida mycoderma 6 h): 12 to 14 mm; zone of inhibition at 5.6 µg/mL (Candida mycoderma; 24 h, 5.6 μg/ml after conversion, no serum, read-out: diameter of the bacteria-inhibition zone, Candida mycoderma 24 h): 12 to 14 mm; zone of inhibition at 5.6 µg/mL (Candida mycoderma; 48 h, 5.6 μg/ml after conversion, no serum, read-out: diameter of the bacteria-inhibition zone, Candida mycoderma 48 h): 12 to 14 mm; zone of inhibition at 5.6 µg/mL (Candida albicans; 0 h, 5.6 μg/ml after conversion, no serum, read-out: diameter of the bacteria-inhibition zone, Candida albicans 0 h): 7 to 9 mm; zone of inhibition at 5.6 µg/mL (Candida albicans; 6 h, 5.6 μg/ml after conversion, no serum, read-out: diameter of the bacteria-inhibition zone, Candida albicans 6 h): 7 to 9 mm; zone of inhibition at 5.6 µg/mL (Candida albicans; 24 h, 5.6 μg/ml after conversion, no serum, read-out: diameter of the bacteria-inhibition zone, Candida albicans 24 h): 7 to 9 mm; zone of inhibition at 5.6 µg/mL (Candida albicans; 48 h, 5.6 μg/ml after conversion, no serum, read-out: diameter of the bacteria-inhibition zone, Candida albicans 48 h): 7 to 9 mm; zone of inhibition at 5.6 µg/mL (Saccharomyces cerevisiae; 0 h, 5.6 μg/ml after conversion, no serum, read-out: diameter of the bacteria-inhibition zone, Saccharomyces cerevisiae 0 h): 14 to 16 mm; zone of inhibition at 5.6 µg/mL (Saccharomyces cerevisiae; 0 h, 5.6 μg/ml after conversion, serum added (40% defibered sheep serum), read-out: diameter of the bacteria-inhibition zone, Saccharomyces cerevisiae 0 h): 14 to 16 mm; zone of inhibition at 5.6 µg/mL (Saccharomyces cerevisiae; 6 h, 5.6 μg/ml after conversion, no serum, read-out: diameter of the bacteria-inhibition zone, Saccharomyces cerevisiae 6 h): 14 to 16 mm; zone of inhibition at 5.6 µg/mL (Saccharomyces cerevisiae; 6 h, 5.6 μg/ml after conversion, serum added (40% defibered sheep serum), read-out: diameter of the bacteria-inhibition zone, Saccharomyces cerevisiae 6 h): 14 to 16 mm; zone of inhibition at 5.6 µg/mL (Saccharomyces cerevisiae; 24 h, 5.6 μg/ml after conversion, no serum, read-out: diameter of the bacteria-inhibition zone, Saccharomyces cerevisiae 24 h): 14 to 16 mm; zone of inhibition at 5.6 µg/mL (Saccharomyces cerevisiae; 24 h, 5.6 μg/ml after conversion, serum added (40% defibered sheep serum), read-out: diameter of the bacteria-inhibition zone, Saccharomyces cerevisiae 24 h): 14 to 16 mm; zone of inhibition at 5.6 µg/mL (Saccharomyces cerevisiae; 48 h, 5.6 μg/ml after conversion, no serum, read-out: diameter of the bacteria-inhibition zone, Saccharomyces cerevisiae 48 h): 14 to 16 mm; zone of inhibition at 5.6 µg/mL (Saccharomyces cerevisiae; 48 h, 5.6 μg/ml after conversion, serum added (40% defibered sheep serum), read-out: diameter of the bacteria-inhibition zone, Saccharomyces cerevisiae 48 h): 14 to 16 mm
CCOC(=O)OC(C)OC(=O)[C@H]1[C@@H]2C[C@@H](O[C@@H]3OC(C)[C@@H](O)[C@@H](N)[C@H]3O)/C=C/C=C/C=C/C=C/C[C@@H](C)OC(=O)/C=C/[C@H]3O[C@@H]3C[C@H](O)C[C@](O)(C[C@@H]1O)O2 (stereo partly drawn) [natamycin ethoxycarbonyloxyethyl ester]	+ (7-9 mm: +)	++ (9-12 mm: ++)	++ (9-12 mm: ++)	++ (9-12 mm: ++)	+ (7-9 mm: +)	+ (7-9 mm: +)	+ (7-9 mm: +)	+ (7-9 mm: +)	+ (7-9 mm: +)	+ (7-9 mm: +)	+ (7-9 mm: +)	+ (7-9 mm: +)	+ (7-9 mm: +)	+ (7-9 mm: +)	+ (7-9 mm: +)	+ (7-9 mm: +)	++ (9-12 mm: ++)	+ (7-9 mm: +)	+ (7-9 mm: +)	diameter of the bacteria-inhibition zone, Candida mycoderma 6 h (Candida mycoderma; [2]): ++ (9-12 mm: ++)
Natamycin methyl pivalate	+ (7-9 mm: +)	++ (9-12 mm: ++)	++ (9-12 mm: ++)	++ (9-12 mm: ++)	++ (9-12 mm: ++)	++ (9-12 mm: ++)	++ (9-12 mm: ++)	++ (9-12 mm: ++)	++ (9-12 mm: ++)	+ (7-9 mm: +)	+ (7-9 mm: +)	+ (7-9 mm: +)	+ (7-9 mm: +)	+ (7-9 mm: +)	+ (7-9 mm: +)	+ (7-9 mm: +)	++ (9-12 mm: ++)	+ (7-9 mm: +)	+ (7-9 mm: +)	–
amphotericin B-1, 3-2H-3-oxo-1-isobenzofuran ester	–	–	–	–	–	–	–	–	–	–	–	–	–	–	–	–	–	–	–	diameter of the bacteria-inhibition zone, Candida mycoderma 0 h (Candida mycoderma; [9]): ++ (9-12 mm: ++); diameter of the bacteria-inhibition zone, Candida mycoderma 0 h (Candida mycoderma; [10]): ++ (9-12 mm: ++); diameter of the bacteria-inhibition zone, Candida mycoderma 6 h (Candida mycoderma; [11]): ++ (9-12 mm: ++); diameter of the bacteria-inhibition zone, Candida mycoderma 24 h (Candida mycoderma; [12]): ++ (9-12 mm: ++); diameter of the bacteria-inhibition zone, Candida mycoderma 48 h (Candida mycoderma; [13]): ++ (9-12 mm: ++); diameter of the bacteria-inhibition zone, Candida albicans 0 h (Candida albicans; [9]): + (7-9 mm: +); diameter of the bacteria-inhibition zone, Candida albicans 0 h (Candida albicans; [10]): + (7-9 mm: +); diameter of the bacteria-inhibition zone, Candida albicans 6 h (Candida albicans; [11]): + (7-9 mm: +); diameter of the bacteria-inhibition zone, Candida albicans 6 h (Candida albicans; 6 h, 2.8 μg/ml after conversion, serum added (40% defibered sheep serum)): ++ (9-12 mm: ++); diameter of the bacteria-inhibition zone, Candida albicans 24 h (Candida albicans; [12]): + (7-9 mm: +); diameter of the bacteria-inhibition zone, Candida albicans 48 h (Candida albicans; [13]): + (7-9 mm: +); diameter of the bacteria-inhibition zone, Saccharomyces cerevisiae 0 h (Saccharomyces cerevisiae; [9]): ++ (9-12 mm: ++); diameter of the bacteria-inhibition zone, Saccharomyces cerevisiae 0 h (Saccharomyces cerevisiae; [10]): ++ (9-12 mm: ++); diameter of the bacteria-inhibition zone, Saccharomyces cerevisiae 6 h (Saccharomyces cerevisiae; [11]): ++ (9-12 mm: ++); diameter of the bacteria-inhibition zone, Saccharomyces cerevisiae 24 h (Saccharomyces cerevisiae; [12]): ++ (9-12 mm: ++); diameter of the bacteria-inhibition zone, Saccharomyces cerevisiae 48 h (Saccharomyces cerevisiae; [13]): ++ (9-12 mm: ++)
mycostatin ethyl acetate	+ (7-9 mm: +)	+ (7-9 mm: +)	+ (7-9 mm: +)	+ (7-9 mm: +)	++ (9-12 mm: ++)	++ (9-12 mm: ++)	++ (9-12 mm: ++)	++ (9-12 mm: ++)	++ (9-12 mm: ++)	+ (7-9 mm: +)	+ (7-9 mm: +)	+ (7-9 mm: +)	+ (7-9 mm: +)	++ (9-12 mm: ++)	++ (9-12 mm: ++)	++ (9-12 mm: ++)	–	++ (9-12 mm: ++)	++ (9-12 mm: ++)	–
